In ChEMBL document CHEMBL3734664, “Noncovalent Mutant Selective Epidermal Growth Factor Receptor Inhibitors: A Lead Optimization Case Study” (J Med Chem, 2015):
pEC50, pIC50, pKi: −log10 of the molar value.

Legend:
[1] = Unbound fraction in mouse plasma; assay type: ADME, cell-free
Mus musculus [2] = assay: In vivo inhibition of EGFR in human NCI-H1975 cells xenografted in po dosed SCID mouse assessed as suppression of AKT phosphorylation administered as qd everyday for 3 days measured 2 to 8 hrs post last dose by electrochemiluminescent immunoassay; assay type: functional
[3] = Half life in rat; assay type: ADME, organism-based; settings: in vivo
Mus musculus [4] = assay: In vivo inhibition of EGFR phosphorylation in human NCI-H1975 cells xenografted in SCID mouse at 300 mg/kg, po qd everyday for 3 days measured 2 to 8 hrs post last dose by electrochemiluminescent immunoassay; assay type: functional
[5] = target: T1, Epidermal growth factor receptor (Homo sapiens, UniProt P00533, 746-750DEL/T790M); assay: Inhibition of EGFR T790M/del (746 to 750) deletion mutant phosphorylation in erlotinib-resistant human PC9 cells preincubated for 1 hr followed by stimulation with EGF for 8 mins by electrochemiluminescent immunoassay; assay type: cell-based, PC-9
[6] = target: T2, Epidermal growth factor receptor (Homo sapiens, UniProt P00533)
Mus musculus [7] = assay: In vivo inhibition of EGFR in human NCI-H1975 cells xenografted in SCID mouse assessed as suppression of AKT phosphorylation at 300 mg/kg, po qd everyday for 3 days measured 2 to 8 hrs post last dose by electrochemiluminescent immunoassay; assay type: functional
Rattus norvegicus = assay: Unbound plasma clearance in rat at 5 mg/kg, iv; assay type: ADME, organism-based; settings: in vivo
NCI-H1975 = assay: Antiproliferative activity against human NCI-H1975 cells expressing EGFR T790M/L858R double mutant after 72 hrs by luminescence assay; assay type: functional, cell-based; settings: NCI-H1975, 72 h
[8] = target: T1, Epidermal growth factor receptor; assay: Inhibition of human EGFR T790M/del (746 to 750) deletion mutant using Fl-EEPLYWSFPAKKK-CONH2 as substrate preincubated for 30 mins followed by addition of substrate measured after 30 mins by Morrison plot analysis; assay type: protein assay; settings: read-out: Ki(app)
[9] = Volume of distribution at steady state in rat; assay type: ADME, organism-based; settings: in vivo, read-out: Vdss
Mus musculus [10] = assay: In vivo inhibition of EGFR in human NCI-H1975 cells xenografted in SCID mouse assessed as suppression of ERK phosphorylation at 300 mg/kg, po qd everyday for 3 days measured 2 to 8 hrs post last dose by electrochemiluminescent immunoassay; assay type: functional
[11] = Plasma clearance in rat at 5 mg/kg, iv; assay type: ADME, organism-based
[12] = target: T2, Epidermal growth factor receptor; remark: listed apart in the source
Description: Inhibition of EGFR phosphorylation in human NCI-H292 cells preincubated for 1 hr followed by stimulation with EGF for 8 mins by electrochemiluminescent immunoassay

[13] = Oral bioavailability in rat; assay type: ADME, organism-based; settings: in vivo
[14] = target: Epidermal growth factor receptor (Homo sapiens, UniProt P00533, L858R/T790M)
Mus musculus [15] = assay: In vivo inhibition of EGFR in human NCI-H1975 cells xenografted in po dosed SCID mouse assessed as suppression of ERK phosphorylation administered as qd everyday for 3 days measured 2 to 8 hrs post last dose by electrochemiluminescent immunoassay; assay type: functional
Liver microsome = assay: Drug level in rat liver microsomes treated with (R)-1-[6-[2-(cis-3-Fluoro-4-methoxypiperidin-1-yl)pyrimidin-4-ylamino]-1-((S)-2,2,2-trifluoro-1-methylethyl)-1H-imidazo[4,5-c]pyridin-2-yl]ethanol; assay type: ADME
physchem = settings: buffer, pH 7.4, logD
Description: Lipophilicity, log D of the compound at pH 7.4 by microscale shake flask method

NCI-H292 = assay: Antiproliferative activity against human NCI-H292 cells expressing wild type EGFR after 72 hrs by luminescence assay; assay type: functional, cell-based; settings: NCI-H292, 72 h
Hepatocyte = assay: Drug level in rat hepatocytes treated with (R)-1-[6-[2-(cis-3-Fluoro-4-methoxypiperidin-1-yl)pyrimidin-4-ylamino]-1-((S)-2,2,2-trifluoro-1-methylethyl)-1H-imidazo[4,5-c]pyridin-2-yl]ethanol; assay type: ADME, cell-based
[16] = Antiproliferative activity against erlotinib-resistant human PC9 cells expressing EGFR with ex19del and T790M mutations after 72 hrs by luminescence assay; assay type: functional, cell-based; settings: PC-9, 72 h

T1 sequence (P00533 whole entry, looked up, stated change not applied): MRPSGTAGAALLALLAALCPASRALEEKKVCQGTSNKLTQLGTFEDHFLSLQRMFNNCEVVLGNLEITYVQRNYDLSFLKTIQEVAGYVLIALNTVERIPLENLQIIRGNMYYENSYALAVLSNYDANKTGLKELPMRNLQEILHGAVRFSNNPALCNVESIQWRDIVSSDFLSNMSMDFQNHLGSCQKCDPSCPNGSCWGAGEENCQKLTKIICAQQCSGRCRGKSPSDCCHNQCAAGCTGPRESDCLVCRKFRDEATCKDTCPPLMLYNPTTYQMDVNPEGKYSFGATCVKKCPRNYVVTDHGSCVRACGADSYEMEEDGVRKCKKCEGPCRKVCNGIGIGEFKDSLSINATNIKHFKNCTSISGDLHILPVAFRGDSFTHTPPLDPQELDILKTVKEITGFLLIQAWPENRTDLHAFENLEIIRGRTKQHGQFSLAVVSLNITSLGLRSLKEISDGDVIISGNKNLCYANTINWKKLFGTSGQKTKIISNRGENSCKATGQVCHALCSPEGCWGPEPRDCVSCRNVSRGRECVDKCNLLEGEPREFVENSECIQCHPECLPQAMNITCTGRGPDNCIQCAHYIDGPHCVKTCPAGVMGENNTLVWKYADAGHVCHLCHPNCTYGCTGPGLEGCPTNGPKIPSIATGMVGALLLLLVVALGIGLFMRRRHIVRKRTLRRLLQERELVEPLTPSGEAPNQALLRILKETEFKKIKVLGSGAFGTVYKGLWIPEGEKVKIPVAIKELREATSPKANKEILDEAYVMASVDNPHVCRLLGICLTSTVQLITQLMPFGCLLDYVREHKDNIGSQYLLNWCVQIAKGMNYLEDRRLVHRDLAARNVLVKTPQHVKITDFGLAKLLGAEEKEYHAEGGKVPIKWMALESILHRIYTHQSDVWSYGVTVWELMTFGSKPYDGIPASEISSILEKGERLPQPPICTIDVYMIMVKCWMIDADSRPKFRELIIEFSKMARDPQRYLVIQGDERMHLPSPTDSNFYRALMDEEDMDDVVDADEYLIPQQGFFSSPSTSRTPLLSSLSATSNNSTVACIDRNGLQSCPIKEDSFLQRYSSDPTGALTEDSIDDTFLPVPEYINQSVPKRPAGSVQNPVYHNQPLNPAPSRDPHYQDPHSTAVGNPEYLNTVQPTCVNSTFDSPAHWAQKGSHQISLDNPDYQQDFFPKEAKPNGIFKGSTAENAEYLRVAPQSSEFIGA
T2 sequence (P00533 whole entry): as the sequence (P00533 whole entry, looked up, stated change not applied) above
Epidermal growth factor receptor (Homo sapiens, UniProt P00533, L858R/T790M), sequence (P00533 25-1210 T790M/L858R limits assumed): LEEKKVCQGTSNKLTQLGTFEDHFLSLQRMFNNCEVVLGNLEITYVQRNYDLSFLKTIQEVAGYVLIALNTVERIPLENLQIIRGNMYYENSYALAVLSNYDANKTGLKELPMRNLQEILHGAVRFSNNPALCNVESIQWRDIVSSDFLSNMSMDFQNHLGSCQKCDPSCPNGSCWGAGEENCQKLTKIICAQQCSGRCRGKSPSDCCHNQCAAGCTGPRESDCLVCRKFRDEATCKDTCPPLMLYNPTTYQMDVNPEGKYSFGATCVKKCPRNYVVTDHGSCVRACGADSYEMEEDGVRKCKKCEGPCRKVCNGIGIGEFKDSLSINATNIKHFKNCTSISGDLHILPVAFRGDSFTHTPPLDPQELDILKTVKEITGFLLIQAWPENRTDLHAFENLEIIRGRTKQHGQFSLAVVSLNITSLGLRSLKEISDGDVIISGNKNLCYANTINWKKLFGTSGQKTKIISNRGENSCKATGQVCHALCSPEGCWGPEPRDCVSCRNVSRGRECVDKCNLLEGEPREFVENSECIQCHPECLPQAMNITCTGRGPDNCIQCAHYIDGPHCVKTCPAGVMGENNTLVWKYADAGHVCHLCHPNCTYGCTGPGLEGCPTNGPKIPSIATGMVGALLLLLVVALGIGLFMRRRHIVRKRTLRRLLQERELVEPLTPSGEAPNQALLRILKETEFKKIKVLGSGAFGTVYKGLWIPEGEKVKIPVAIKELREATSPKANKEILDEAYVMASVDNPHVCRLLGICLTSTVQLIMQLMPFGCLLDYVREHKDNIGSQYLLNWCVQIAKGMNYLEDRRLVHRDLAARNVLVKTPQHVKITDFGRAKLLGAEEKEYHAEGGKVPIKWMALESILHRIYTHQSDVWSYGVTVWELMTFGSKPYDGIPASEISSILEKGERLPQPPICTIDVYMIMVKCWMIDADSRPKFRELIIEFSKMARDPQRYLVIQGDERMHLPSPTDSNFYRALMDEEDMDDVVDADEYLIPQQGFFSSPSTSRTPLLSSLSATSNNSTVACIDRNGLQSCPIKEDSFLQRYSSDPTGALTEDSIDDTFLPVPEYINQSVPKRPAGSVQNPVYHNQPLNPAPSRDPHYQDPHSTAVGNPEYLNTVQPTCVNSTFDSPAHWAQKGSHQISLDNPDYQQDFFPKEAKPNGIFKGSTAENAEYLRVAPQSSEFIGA

fraction unbound [1]: 0.207
half-life [3]: 42.6 min
pIC50 [5]: 7.09
pKi [6]: 6.50
CL free (Rattus norvegicus): 348 mL/min/kg
pEC50 (NCI-H1975): 6.06
pKi [8]: 8.22
Vd [9]: 3.5 L/kg
clearance [11]: 71 mL/min/kg
pIC50 [12]: < 5.00
bioavailability [13]: 29%
pKi [14]: 8.60
Drug metabolism (Liver microsome): metabolite_detected
logD (physchem): 1.8
pEC50 (NCI-H292): < 5.00
Drug metabolism (Hepatocyte): metabolite_detected
SMILES: C[C@@H](O)c1nc2cnc(Nc3ccnc(N4CC[C@H](O)[C@H](F)C4)n3)cc2n1[C@H](C)C(F)(F)F
fEC50 (Mus musculus [2]): 0.5 µM
inhibition in vivo at 300 mg/kg (Mus musculus [4]): > 90%
inhibition in vivo at 300 mg/kg (Mus musculus [7]): > 65%
inhibition in vivo at 300 mg/kg (Mus musculus [10]): > 90%
fEC50 (Mus musculus [15]): 0.3 µM
pEC50 [16]: 6.77
